In PubChem BioAssay AID1259427 (Fisher Drug Discovery Resource Center, 2018):
The source made the active and inactive calls.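 How the source made its calls: active means EC50 at or below a set limit, with no effect in the paired counter-screen assay; inactive means the rest.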

Biological target: Aedes aegypti neuropeptide Y-like receptor 7 (NPYLR7)
Assay: agonists of mosquito NPYLR7 receptor, confirmation, cell-based, Aedes aegypti, hit validation, mosquito biting behavior (AID 1259427);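 further: potency of agonists that activate the receptor and raise the calcium signal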
Settings: HEK293T NPYLR7/Galpha15/GCaMP6s, calcium fluorescence

Row | SMILES | EC50
1 | COc1ccccc1Oc1nc2ccccn2c(=O)c1/C=C(\C#N)c1nc2ccccc2s1 | > 20 µM (inactive)
2 | COc1ccc2nc(C=Cc3cc(Br)c(O)c(OC)c3)sc2c1 | > 20 µM (inactive)
3 | CC(C)(C)NCC(O)c1ccc(O)c(CO)c1 (centres undefined) | > 20 µM (inactive)
4 | COCCN=Cc1cc(I)cc(I)c1O | > 20 µM (inactive)
5 | CC(C)Nc1ccc(NS(=O)(=O)NCc2ccccc2)cn1 | > 20 µM (inactive)
6 | Cc1cc(C=C2Sc3ccccc3N2C)cc(C)[n+]1-c1ccccc1 | inactive
7 | COc1ccc(-n2ccnc2-c2nc(-c3cccs3)oc2C)cn1 | > 20 µM (inactive)
8 | O=C(NCCSc1ccc(Cl)cc1)c1ccc2c(=O)n3c(nc2c1)CCC3 | > 20 µM (inactive)
9 | O=C(c1nccc2ccccc12)N1CCN(CC2CCCC2)CC1 | > 20 µM (inactive)
10 | O=C1/C(=C/c2cc3ccccc3o2)Oc2c1ccc(O)c2CN1CCN(CCO)CC1 | inactive
11 | COc1ccc(Cl)cc1Nc1nnc(-c2cc3c(ccc4ccccc43)oc2=O)s1 | > 20 µM (inactive)
12 | Cc1ccc(N2C(=O)NC(=O)/C(=C\c3cccs3)C2=O)cc1 | > 20 µM (inactive)
13 | O=c1oc2c(CN3CCN(CCO)CC3)c(O)ccc2cc1-c1nc2ccccc2s1 | < 0.039 µM (inactive)
14 | CN(Cc1ccccc1)c1cc(Oc2cccc(Cl)c2)ncn1 | > 20 µM (inactive)
15 | NC(=S)N/N=c1\oc2cc(O)ccc2cc1-c1nc2ccccc2[nH]1 | inactive
16 | CCn1c(=O)c2c(nc(/C=C/c3ccc(OC)c(OC)c3)n2C)n(CC)c1=O | > 20 µM (inactive)
17 | O=c1[nH]c(SCCO)nc2sc3c(c12)CCCC3 | > 20 µM (inactive)
18 | Cc1nc2ncccc2cc1C(=O)N1CCC2(CCNC(=O)CC2)CC1 | > 20 µM (inactive)
19 | COc1cccc(-n2c(O)c(C=Nc3cc(OC)ccc3OC)c3ccccc3c2=O)c1 | > 20 µM (inactive)
20 | CCOC(=O)c1c(-c2ccccc2)csc1N=Cc1nc(-c2ccccc2)oc1O | > 20 µM (inactive)
21 | C(=Cc1ccccc1)C=NNc1ncnc2ccccc12 | > 20 µM (inactive)
22 | O=C1NC(=NS(=O)(=O)c2ccccc2)SC1=Cc1cc([N+](=O)[O-])ccc1O | > 20 µM (inactive)
23 | C=CCN1C(=O)C(Cc2ccc(OC)cc2)S/C1=N/N=C\c1cccs1 (centres undefined) | > 20 µM (inactive)
24 | CN(C)c1ccc(/C=C2/SC(=S)N(CC(=O)O)C2=O)cc1Br | inactive
25 | C[C@H](O)C(=O)C1=Nc2c(nc(N)[nH]c2=O)NC1 | > 20 µM (inactive)

Row | SMILES | EC50
26 | COc1cc(-c2nc3n(n2)C(c2ccc(O)cc2)C(C(N)=O)=C(C)N3)cc(OC)c1OC (centres undefined) | > 20 µM (inactive)
27 | O=[N+]([O-])c1c[n+]([O-])n(-c2cccc(Cl)c2)n1 | > 20 µM (inactive)
28 | CCN1CCN(C2=CC3=CC(=C(C#N)C#N)CCC3CC2)CC1 (centres undefined) | < 0.039 µM (inactive)
29 | CCCCN(CC(=O)Nc1c(-c2ccccc2)c(C)nn1-c1ccccc1C)S(=O)(=O)c1ccc(F)cc1 | > 20 µM (inactive)
30 | COc1ccc(S(=O)(=O)NCC2CCCN(C(=O)CSc3ccccc3)C2)cc1 (centres undefined) | 11.3 µM
31 | CCN1CCN(Cc2c(O)cc(C)c3c2O/C(=C\c2ccco2)C3=O)CC1 | > 20 µM (inactive)
32 | CC1(C)OC2OC(C(O)c3cc(O)c4c(c3O)C(=O)c3ccccc3C4=O)C(C)(O)C2O1 (centres undefined) | inactive
33 | COc1cc(C=C(C#N)S(=O)(=O)c2cc(Br)ccc2Br)ccc1O | > 20 µM (inactive)
34 | CCN1/C(=C/C2=CC(=O)CC(C)(C)C2)Sc2ccccc21 | inactive
35 | COc1ccc(N2CCN(c3cc(C(F)(F)F)nc(SCc4cccc(C(=O)NCc5ccccn5)c4)n3)CC2)cc1 | > 20 µM (inactive)
36 | C=C(C)Cn1c(C(=O)N2CCN(C(=O)CCC(=O)OCC)C(C)C2)cc2ccoc21 (centres undefined) | 6.05 µM
37 | CC(C(=O)O)N1C(=O)/C(=C\c2ccc(O)cc2)SC1=S (centres undefined) | > 20 µM (inactive)
38 | O=C(CSc1cn(CC(=O)N2CCCCCC2)c2ccccc12)NC1CCCC1 | > 20 µM (inactive)
39 | N#CC(C#N)=C1C=C2C=C(N3CCCC3)CCC2CC1 (centres undefined) | < 0.039 µM (inactive)
40 | Cc1cccc(Oc2nc3ccccn3c(=O)c2/C=C(\C#N)c2nc3ccccc3s2)c1 | > 20 µM (inactive)
41 | O=[N+]([O-])c1cc(S(=O)(=O)Nc2cc(Cl)ccc2F)ccc1F | > 20 µM (inactive)
42 | CCc1nn(C(C)C(=O)NC(C)CCc2ccco2)c(=O)c2cc3occc3n12 (centres undefined) | inactive
43 | COC(=O)C(C)Sc1nc2sc3c(c2c(=O)n1C)CCC3 (centres undefined) | > 20 µM (inactive)
44 | O=C(C1=NN(c2ccccc2)C2C(=O)N(c3ccccc3)C(=O)C12)c1ccccc1 (centres undefined) | > 20 µM (inactive)
45 | CCCCCN=C(N)NN=Cc1c[nH]c2ccc(OC)cc12 | 7.37 µM
46 | O=C1Nc2ccccc2C1C=NN1CCOCC1 (centres undefined) | > 20 µM (inactive)
47 | Cc1ccc2nc(Cn3cnc4c(Cl)cc(Cl)cc4c3=O)cc(=O)n2c1 | > 20 µM (inactive)
48 | N#CC(C#N)=C1C=C2C=C(N3CCCCCC3)CCC2CC1 (centres undefined) | < 0.039 µM (inactive)
49 | CCNC(=O)[C@H]1O[C@@H](n2cnc3c(N)ncnc32)C(O)[C@H]1O (some centres undefined) | inactive
50 | N#CC1C(=N)Oc2cc(O)ccc2C1c1ccccc1I (centres undefined) | inactive

Row | SMILES | EC50
51 | N#Cc1cc(C(=O)c2cc(Cl)cc(Cl)c2O)cn(-c2nccs2)c1=O | 14.4 µM
52 | CCCn1c2c(c(=O)n(C)c1=O)C(=O)C(=Cc1ccc(N(C)C)cc1)N2 | inactive
53 | CCC1CN(C(=O)c2cc(C(C)C)on2)CCC(=O)N1Cc1ccccc1 (centres undefined) | > 20 µM (inactive)
54 | CCOC(=O)c1nc2ccccc2nc1N1CCN(C(=O)N2CCOCC2)CC1 | > 20 µM (inactive)
55 | O=C(O)c1[nH]ncc1CN1CCc2onc(-c3ccc(C(F)(F)F)cc3)c2C1 | > 20 µM (inactive)
56 | C=CCNc1ccc2c3c(cccc13)C(=O)N(c1ccccc1)C2=O | inactive
57 | CCOC(=O)c1ccc(N=c2oc3cc(O)ccc3cc2-c2nc3ccccc3[nH]2)cc1 | inactive
58 | COc1ccc(CCN2COc3ccc4c(c3C2)O/C(=C\c2cccnc2)C4=O)cc1 | > 20 µM (inactive)
59 | CC1=NCCc2c1[nH]c1cc(O)ccc21 | inactive
60 | COc1ccc(-n2ccnc2-c2ccc(C#CC(C)(C)O)cc2)cn1 | > 20 µM (inactive)
61 | CCN(CC)c1ccc(/C=C2\SC(=S)N(CCS(=O)(=O)O)C2=O)cc1 | inactive
62 | Cc1csc(-c2cc3ccc(O)c(CN4CCN(CCO)CC4)c3oc2=O)n1 | < 0.039 µM (inactive)
63 | COc1ccc(NC(=O)C2C=CCN2)cc1NC(=O)c1ccco1 (centres undefined) | > 20 µM (inactive)
64 | C[C@@H](NC(=O)CN1Cc2ccc(N3CCOCC3)nc2C1=O)c1ccccc1 | > 20 µM (inactive)
65 | CCOC(=O)C1CCN(C(=O)CC(c2cccc(C(F)(F)F)c2)c2c[nH]c3c(CC)cccc23)CC1 (centres undefined) | > 20 µM (inactive)
66 | CCOCCCN1C(=O)C(=Cc2ccccc2O)NC1=S | inactive
67 | CN1C(=S)N(c2ccc3c(c2)CCC3)C(=O)/C1=C\c1ccncc1 | > 20 µM (inactive)
68 | O=C(O)CSc1ccc2c3c(cccc13)C(=O)c1ccccc1-2 | inactive
69 | COc1ccc(C(=O)N(Cc2ccccc2)C2CCC(NC(=O)C3CCN(C(=O)c4ccccc4Cl)CC3)CC2)cc1 (centres undefined) | 18 µM
70 | CNC[C@@H](O)c1ccc(O)c(O)c1 | > 20 µM (inactive)
71 | CCN1CCc2c(sc(NC(=O)C3=COCCO3)c2-c2nc3ccccc3s2)C1 | inactive
72 | O=C(c1snc2c(=O)n(Cc3ccccc3)c(=O)[nH]c12)N1CCSCC1 | > 20 µM (inactive)
73 | C[n+]1c2cc(N)ccc2cc2ccc(N)cc21 | < 0.039 µM (inactive)
74 | Cc1ccc(CN(Cc2ccc(F)cc2)C(=O)CNCCN2CCOCC2)s1 | > 20 µM (inactive)
75 | CCN=c1cc2oc3cc(NCC)c(C)cc3c(-c3ccccc3C(=O)OCC)c-2cc1C | inactive

Row | SMILES | EC50
76 | CCCC[n+]1c(C)cc(C=C2Sc3ccccc3N2C)cc1C | > 20 µM (inactive)
77 | CC(=O)Oc1ccc(Cn2c(C)c(C(=O)NCc3ccc(C#N)cc3)sc2=O)cc1 | > 20 µM (inactive)
78 | CCCCN(C)C1=CC2=CC(=C(C#N)C#N)CCC2CC1 (centres undefined) | < 0.039 µM (inactive)
79 | COc1cccc(CN2C(=O)c3cccc(N)c3C2=O)c1 | > 20 µM (inactive)
80 | CN1C(=S)N(CCCN2CCOCC2)C(=O)/C1=C/c1ccc(N(C)C)cc1 | > 20 µM (inactive)
81 | CCOC(=O)N1CCN(c2ccc(/C=C(\C#N)c3nc4ccccc4n3C)o2)CC1 | inactive
82 | COc1ccc(CC2c3cc(OC)c(OC)cc3CC[N+]2(C)CCC(=O)OCCCCCOC(=O)CC[N+]2(C)CCc3cc(OC)c(OC)cc3C2Cc2ccc(OC)c(OC)c2)cc1OC (centres undefined) | 3.55 µM
83 | O=C1/C(=C/c2cc3ccccc3o2)Oc2cc(O)ccc21 | > 20 µM (inactive)
84 | CCN1CC=C2C(C#N)C(=N)C(C#N)(C#N)C(c3cccs3)C2C1 (centres undefined) | > 20 µM (inactive)
85 | FC(F)(F)c1ccc(-c2nc3ccc(Cl)cn3c2NCc2ccccc2)cc1 | > 20 µM (inactive)
86 | Nc1ccc2c3c(cccc13)C(=O)NC2=O | inactive
87 | O=C(O)c1csc(CSc2nnc(-c3ccncc3)n2-c2cccc(C(F)(F)F)c2)n1 | > 20 µM (inactive)
88 | O=C(CC(c1cccc([N+](=O)[O-])c1)c1c[nH]c2ccccc12)NC1CC1 (centres undefined) | > 20 µM (inactive)
89 | COc1cc(OC)c(OC)cc1/C=C1/SC(=S)N(CC(=O)O)C1=O | inactive
90 | CNCC(O)c1ccc(O)c(O)c1 (centres undefined) | inactive
91 | O=C1c2ccccc2C(=O)C1c1ccnc2ccccc12 | > 20 µM (inactive)
92 | Nc1nc(Cl)nc2c1ncn2[C@@H]1O[C@H](CO)[C@@H](O)[C@H]1O | inactive
93 | CCOC(=O)C1=C(O)/C(=C\c2ccc(N(C)C)cc2)SC1=Nc1ccc(OC)cc1OC | > 20 µM (inactive)
94 | Cn1c(/C(C#N)=C/c2ccc(N3CCOCC3)o2)nc2ccccc21 | 14.9 µM
95 | Cc1ccc(-c2nc3nc(N)n(C)c(=O)c3[nH]c2=O)cc1 | > 20 µM (inactive)
96 | COc1ccc(OC)c(CCNc2nc3cnc(-c4ccc(Cl)cc4)cc3n2C)c1 | 19.5 µM
97 | COc1ccc(/C=C2\Oc3c(ccc4c3CN(Cc3ccncc3)CO4)C2=O)cc1 | inactive
98 | O=C1C(=Cc2ccc(OC(F)F)cc2OC(F)F)Oc2cc(O)ccc21 | > 20 µM (inactive)
99 | CCc1nc(N=C(N)N)nc2cc(C)ccc12 | 7.66 µM
